Source: ChEMBL document CHEMBL1121759, “Aporphines, 36. Dopamine receptor interactions of trihydroxyaporphines. Synthesis, radioreceptor binding, and striatal adenylate cyclase stimulation of 2,10,11-trihydroxyaporphines in comparison with other hydroxylated aporphines” (J Med Chem, 1981)
Activity calls are given as the source filed them. No cut-off for these calls is given here.

What follows are compounds tested against T1, Adenylate cyclase (Rattus norvegicus) (UniProt D4A3N4+P26770+Q04400+P26769+Q03343+P40146+Q8CFM9+P21932) (assay: Dopamine sensitive adenylate cyclase activity (stimulation) in homogenates of rat brain striatal tissue was assessed at 50 uM; + = <40% increase of cAMP above basal activity).
Format: tissue-based

| SMILES | Stimulation |
| --- | --- |
| C=CCN1CCc2cc(O)cc3c2[C@H]1Cc1ccc(O)c(O)c1-3 | Partially active |
| CCN1CCc2cc(O)cc3c2[C@H]1Cc1ccc(O)c(O)c1-3 | Partially active |
| OCCN1CCc2cccc3c2[C@H]1Cc1ccc(O)c(O)c1-3 | Partially active |
| CCCN1CCc2cccc3c2[C@H]1Cc1cccc(O)c1-3 | Partially active |
| C#CCN1CCc2cc(O)cc3c2[C@H]1Cc1ccc(O)c(O)c1-3 | Partially active |
| CN1CCc2cccc3c2C1Cc1ccc(O)cc1-3 (stereo not drawn) | Partially active |
| Oc1cc2c3c(c1)-c1c(ccc(O)c1O)C[C@H]3NCC2 | Partially active |
| CCCN1CCc2cc(O)cc3c2[C@H]1Cc1ccc(O)c(O)c1-3 | Partially active |

These compounds were tested against T1, Adenylate cyclase (Rattus norvegicus) (assay: Dopamine sensitive adenylate cyclase activity (stimulation) in homogenates of rat brain striatal tissue was assessed at 50 uM of compound; ++ = 41-60% incresae of cAMP above basal activity).
Format: tissue-based

| SMILES | Stimulation |
| --- | --- |
| CN1CCc2cc(O)cc3c2[C@H]1Cc1ccc(O)c(O)c1-3 | Active |
| CCCN1CCc2cccc3c2[C@H]1Cc1ccc(O)c(O)c1-3 (stereo in doubt; 1c) | Active |

These compounds were tested against T1, Adenylate cyclase (Rattus norvegicus) (assay: Dopamine sensitive adenylate cyclase activity (stimulation) in homogenates of rat brain striatal tissue was assessed at 50 uM of compound; +++ = 61-80% incresae of cAMP above basal activity).
Format: tissue-based

| SMILES | Stimulation |
| --- | --- |
| CCCN1CCc2cccc3c2[C@H]1Cc1ccc(O)c(O)c1-3 (stereo in doubt; 1b) | Partially active |
| CN1CCc2cccc3c2[C@H]1Cc1ccc(O)c(O)c1-3 | Partially active |

These compounds were tested against T1, Adenylate cyclase (Rattus norvegicus) (assay: Dopamine sensitive adenylate cyclase activity (stimulation) in homogenates of rat brain striatal tissue was assessed at 50 uM of compound; Inhibitis the cyclase activity).
Format: tissue-based

| SMILES | Stimulation |
| --- | --- |
| Oc1ccc2c(c1O)-c1cccc3c1[C@@H](C2)N(CCCl)CC3 | inactive |
